PMC12663132, “Assessment of cytotoxicity of some synthetic compounds against breast carcinoma spheroids with subsequent analysis of pro-apoptotic and gene expression” (Scientific Reports, 2025)
Read-outs that look alike come from different tables or passages of the source.

Legend:
MCF7 = experiment: Cytotoxicity on MCF7 monolayers (MTT assay); conditions: for cytotoxicity at 50 µM: Homo sapiens, MCF7, 72 h, read-out: Mean of % cytotoxicity ± SD; for % inhibition 2D / Mean of % cytotoxicity ± SD: MCF7 monolayer; for % inhibition 2D: 50 µM; for Mean of % cytotoxicity ± SD: 50µM, 72 h, MTT
Protocol: (§1) Eighty pre-plated synthetic chemical compounds were screened on two human cell lines: MCF7 (ATCC® HTB-22™), a Caucasian breast adenocarcinoma model, and hTERT-RPE-1 (ATCC® CRL-4000™), a normal retinal epithelial cell line immortalized by hTERT telomerase. […] The cells were cultured in DMEM-F12 medium supplemented with L-glutamine and 10% fetal bovine serum, all were purchase from Biowest (Biotechnology company in Nuaillé, France), and maintained in a controlled incubator environment set at 37 °C with 5% CO2 and 95% humidity.
MCF7 cells were seeded in flat-bottom 96-well plates with a concentration of 20,000 cells/well, and were left overnight. The compounds were tested at a final concentration of 50 µM. Doxorubicin was used as a positive control and 0.5% DMSO as a negative control. The treatment duration was 72 h. The cytotoxicity was then assessed using the MTT assay, as described by Mosmann[43].

MCF7 3D spheroids = experiment: Cytotoxicity on MCF7 3D multicellular spheroids (acid phosphatase method); conditions: for cytotoxicity at 50 µM: MCF7, 120 h, read-out: Mean of % cytotoxicity ± S.D; for % inhibition 3D: 50 µM; for Mean of % cytotoxicity ± S.D: 50µM, 120 h
Protocol: as §1
3-D spheroid models were generated from MCF7 cancer and hTERT-RPE1 normal cells were seeded at 10,000 and 50,000 cells/well, respectively, in poly-HEMA coated round bottom plates according to the protocol previously mentioned[44]. The cells were incubated for 5 days to generate the spheroids with diameter of 500 ± 20 µm. The spheroids were imaged using Olympus S100, U-CMAD3 camera connected to Olympus inverted microscope and the diameter of the spheroids was measured using Cellscen-Entry software. Test compounds were added in triplicate to a final concentration of 50 µM and were incubated for 120 h. […] At the end of incubation, cytotoxicity was determined using the acid phosphatase method[45]. After washing twice with 250 μL PBS buffer, 100 μL of 0.1 M sodium citrate, 0.1% Triton X-100, p-nitrophenylphosphate (2 mg/ml) (Pierce Biotechnology Inc., Rockford, IL) was added to each well and incubated for 1.5 h at 37 °C. After incubation, 10 μL of 1N NaOH stop solution was added to each well, and absorbance was read at 405 nm. Cytotoxicity was calculated according to the following equation:

MCF7 breast cancer cells = experiment: Gene expression profiling by real-time PCR (p53, Bax, Bcl-2, IL-6, TNF-alpha, MMP1); assay type: cell-based, human; conditions: MCF7, IC50 concentration, 24 h, qRT-PCR
Protocol: Total RNA was extracted from both control and treated cells using the RNeasy kit. Up to one million cells were subjected to disruption in Buffer RLT, homogenization, and ethanol treatment to promote selective binding of RNA to the RNeasy membrane. High-purity RNA was subsequently eluted using RNase-free water. All binding, washing, and elution steps were performed using centrifugation in a micro-centrifuge. The sample was then applied to an RNeasy Mini spin column, enabling total RNA retention on the membrane while contaminants were efficiently eliminated. The RNA was then used as a template for real-time PCR to quantify the mRNA levels of genes. Two sets of primers were used—one for the IL-6, TNF-alpha, MMP1, p53, Bcl-2, and Bax genes and another for the endogenous control gene, β-actin (Table 6). The real-time PCR reaction was carried out with the following cycling conditions: 50 °C for 45 min (cDNA synthesis), followed by 40 cycles of 95 °C for 10 s and 60 °C for 60 s. A negative control was included to ensure primer specificity and rule out contamination. Finally, the statistical analysis of the expression of the genes was performed using one-way ANOVA followed by the Tukey–Kramer post-test.

hTERT-RPE1 3D spheroids = experiment: Cytotoxicity on normal RPE1 3D spheroids (acid phosphatase method); assay type: cell-based, human; conditions: 120 h
Protocol: These cell lines were generously provided by Prof. Stig Linder, Karolinska Institute (Sweden).
Cytotoxicity was calculated according to the following equation: […]

[1] = Homo sapiens, MCF7, read-out: IC50 (µM) for MCF7 ± SD, MCF7 3D spheroids
[2] = read-out: IC50 (µM) for MCF7 ± SD, MCF7 3D spheroids

SMILES	cytotoxicity at 50 µM (MCF7) [%]	cytotoxicity at 50 µM (MCF7 3D spheroids; Homo sapiens) [%]	further results
Nc1ccccc1SCC=CCSc1ccccc1N [C02, 2-({4-[(2-aminophenyl)thio]but-2-enyl}thio)aniline]	100 ± 0.003	87.3 ± 4.5	IC50 (MCF7 3D spheroids; [1]): < 26 µM; IC50 (MCF7 3D spheroids; [2]): 25.3 ± 1.2 µM; Expression of apoptosis-related genes (Bax, P53, Bcl-2) (MCF7 breast cancer cells): moderate pro-apoptotic effect compared to the positive control; Cytotoxic effect% ± SD RPE1(50µM) (hTERT-RPE1 3D spheroids): 18.3 ± 0.4%
NC(=NOC(=O)Nc1ccc(OC(F)(F)F)cc1)c1cnccn1 [E08, N'-({[4-(trifluoromethoxy)anilino]carbonyl}oxy) pyrazine-2-carboximidamide]	–	–	% inhibition 2D (MCF7): 84.1%; Mean of % cytotoxicity ± SD (MCF7): 84.1 ± 1.6%; % inhibition 3D (MCF7 3D spheroids; MCF7 3D spheroids): 40.2%; Mean of % cytotoxicity ± S.D (MCF7 3D spheroids; MCF7 3D spheroids): 40.2 ± 3.8%
COc1ccc(Cl)cc1NC(=O)Nc1ccc(N2CCCCC2)cc1 [E09, N-(5-chloro-2-methoxyphenyl)-N'-(4-piperidinophenyl) urea]	28.3 ± 0.9	50.7 ± 0.52	–
CC1(C)C=Cc2cc(C(N)=NOC(=O)c3cccc(C(F)(F)F)c3)ccc2O1 [E10, O6-[3-(trifluoromethyl)benzoyl]-2,2-dimethyl-2H-chromene-6-carbohydroximamide]	100 ± 0.003	67.5 ± 0.5	–
CC1(C)CC(=O)C2=C(C1)OC(N)=C(C#N)C2c1ccc(Cl)cc1 (centres unmarked) [E11, 2-amino-4-(4-chlorophenyl)-7,7-dimethyl-5-oxo-5,6,7,8-tetrahydro-4H-chromene-3-carbonitrile]	93.7 ± 1.29	66.4 ± 1.9	–
O=C1C2CCN(CC2)C1CSc1ccc(Cl)cc1 (centres unmarked) [F02, 2-{[(4-chlorophenyl)thio]methyl}quinuclidin-3-one]	100 ± 0.003	52 ± 2.9	–
CCOC(=O)c1c(NS(=O)(=O)c2cccc3nsnc23)sc(C)c1C [F03, ethyl 2-[(2,1,3-benzothiadiazol-4-ylsulfonyl)amino]-4,5-dimethylthiophene-3-carboxylate]	70 ± 4	91.5 ± 0.5	IC50 (MCF7 3D spheroids; [1]): < 26 µM; IC50 (MCF7 3D spheroids; [2]): 18.8 ± 1.3 µM; Expression of apoptosis-related genes (Bax, P53, Bcl-2) (MCF7 breast cancer cells): moderate pro-apoptotic effect compared to the positive control; Cytotoxic effect% ± SD RPE1(50µM) (hTERT-RPE1 3D spheroids): 34.4 ± 2.3%
O=C1C2CC=CCC2C(=O)N1c1cccc(N2C(=O)C3CC=CCC3C2=O)n1 (centres unmarked) [F04, 2-[6-(1,3-dioxo-2,3,3a,4,7,7a-hexahydro-1H-isoindol-2-yl)-2-pyridyl]-2,3,3a,4,7,7a-hexahydro-1H-isoindole-1,3-dione]	46.9 ± 2.6	29.8 ± 1.23	–
O=C1CNC(=S)N1CCOc1ccc(Cl)cc1 [F05, 3-[2-(4-chlorophenoxy)ethyl]-2-thioxoimidazolidin-4-one]	96.9 ± 1.4	31.6 ± 0.8	–
Cc1ccc(S(=O)(=O)CCNC(=O)c2c(-c3c(Cl)cccc3Cl)noc2C)cc1 [F07, N4-{2-[(4-methylphenyl)sulfonyl]ethyl}-3-(2,6-dichlorophenyl)-5-methylisoxazole-4-carboxamide]	4.4 ± 0.118	54.2 ± 0.53	–
OC(CSc1ccccc1)CN1CCN(c2nccc(C(F)(F)F)n2)CC1 (centres unmarked) [F08, 1-(phenylthio)-3-{4-[4-(trifluoromethyl)pyrimidin-2-yl]piperazino}propan-2-ol]	100 ± 0.003	61.6 ± 0.8	–
Cc1nnsc1-c1nnc(-c2ccccc2C(F)(F)F)o1 [F09, 2-(4-methyl-1,2,3-thiadiazol-5-yl)-5-[2-(trifluoromethyl)phenyl]-1,3,4-oxadiazole]	9.9 ± 3.8	14.2 ± 0.5	–
O=C1C(=C2NC(c3ccccn3)C3C(=O)N(c4ccc(OC(F)(F)F)cc4)C(=O)C23)C(=O)c2ccccc21 (centres unmarked) [F10, 4-(1,3-dioxo-2,3-dihydro-1H-inden-2-yliden)-6-(2-pyridyl)-2-[4-(trifluoromethoxy)phenyl]perhydropyrrolo [3,4-c]pyrrole-1,3-dione]	100 ± 0.003	60.3 ± 1.1	–
NS(=O)(=O)c1cccc(NC(=O)Nc2ccccc2)c1 [F11, 3-[(anilinocarbonyl)amino]benzenesulfonamide]	0	60.4 ± 0.77	–
Cn1c(SCC(=O)NN2CC(=O)N(c3cccc(Cl)c3)CC2=O)nnc1-c1ccncc1 [G02, N-[4-(3-chlorophenyl)-2,5-dioxopiperazino]-2-{[4-methyl-5-(4-pyridinyl)-4H-1,2,4-triazol-3-yl]sulfanyl}acetamide]	0	-9.9 ± 0.8	–
COc1cc(C(F)(F)F)nc2ccc(C#CCOC(=O)c3ccccc3)cc12 [G03, 3-[4-methoxy-2-(trifluoromethyl)-6-quinolyl]prop-2-ynyl benzoate]	49.8 ± 2.9	21.3 ± 0.6	–
Cc1nc(-c2ccc(S(=O)(=O)Nc3ccc4c(c3)OCCO4)s2)cs1 [G04, N-(2,3-dihydro-1,4-benzodioxin-6-yl)-5-(2-methyl-1,3-thiazol-4-yl)-2-thiophenesulfonamide]	0	6.3 ± 0.3	–

SMILES	cytotoxicity at 50 µM (MCF7) [%]	cytotoxicity at 50 µM (MCF7 3D spheroids; Homo sapiens) [%]	further results
COC(=O)c1sccc1S(=O)(=O)Nc1ccc(-c2cn3c(n2)SCC3)cc1 [G05]	–	–	% inhibition 2D (MCF7): 65.7%; Mean of % cytotoxicity ± SD (MCF7): 65.7 ± 1.0%; % inhibition 3D (MCF7 3D spheroids; MCF7 3D spheroids): 35.1%; Mean of % cytotoxicity ± S.D (MCF7 3D spheroids; MCF7 3D spheroids): 35.1 ± 0.6%
O=C(NNC1=Nc2ccccc2SC1)c1ccc(F)cc1 [G06, N'-(2H-1,4-benzothiazin-3-yl)-4-fluorobenzohydrazide]	93.4 ± 1.6	52.3 ± 2.3	–
NS(=O)(=O)c1cccc(NC(=O)c2cccnc2Oc2ccccc2)c1 [G07, N-[3-(aminosulfonyl)phenyl]-2-phenoxynicotinamide]	0	35.1 ± 0.77	–
N#CCc1ccc(NC(=O)Nc2ccc(OC(F)(F)F)cc2)cc1 [G08, N-[4-(cyanomethyl)phenyl]-N'-[4-(trifluoromethoxy)phenyl]urea]	82.8 ± 0.76	56.2 ± 3	–
Cc1c(NCN2C(=O)CCC2=O)cc2c(c1[N+](=O)[O-])C(C)(C)CC2(C)C [G09, 1-{[(1,1,3,3,6-pentamethyl-7-nitro-2,3-dihydro-1H-inden-5-yl)amino]methyl}pyrrolidine-2,5-dione]	100 ± 0.005	66.5 ± 1.1	–
ON=Cc1ccc(-c2ccccc2OC(F)(F)F)o1 [G10, 5-[2-(trifluoromethoxy)phenyl]-2-furaldehyde oxime]	100 ± 0.003	54.4 ± 1.2	–
CC(=O)Nc1ccc(C=C(C#N)C(N)=O)cc1 [G11, 3-[4-(acetylamino)phenyl]-2-cyanoacrylamide]	15.6 ± 1.7	60.8 ± 1.23	–
Clc1ccc(OCCCCCCCCCCOc2ccc(Cl)cc2)cc1 [H02, 1,10-bis(4-chlorophenoxy)decane]	68.7 ± 2.7	3.5 ± 0.8	–
Cc1ccc2[nH]c(SCC(=O)NC3Cc4ccccc4C3)nc2c1 [H03, N-(2,3-dihydro-1H-inden-2-yl)-2-[(5-methyl-1H-benzimidazol-2-yl)thio]acetamide]	88.5 ± 5.8	15.8 ± 0.11	–
O=C(Nc1ccc2c(c1)COCO2)c1cc2ccccc2oc1=O [H04, N3-(4H-1,3-benzodioxin-6-yl)-2-oxo-2H-chromene-3-carboxamide]	46 ± 0.8	28 ± 0.6	–
CS(=O)(=O)CC(N)=S [H05, 2-(methylsulfonyl)ethanethioamide]	24.1 ± 1.17	19.3 ± 0.5	–
O=C(O)c1ccc(-c2ccsc2)cc1 [H06, 4-(3-thienyl)benzoic acid]	7.8 ± 0.23	26.1 ± 0.4	–
Cc1cc(Br)c(NC(=O)C(Cl)Cl)c(Br)c1 [H07, N1-(2,6-dibromo-4-methylphenyl)-2,2dichloroacetamide]	65.3 ± 2.3	40.6 ± 0.7	–
CC(C)N1CC(COc2ccc(Br)cc2)OC1=O (centres unmarked) [H08, 5-[(4-bromophenoxy)methyl]-3-isopropyl-1,3-oxazolan-2-one]	18 ± 2.23	49 ± 1.4	–
CCOC(=O)N1CCC(=NNc2ccc([N+](=O)[O-])cc2[N+](=O)[O-])CC1 [H10, ethyl 4-[2-(2,4-dinitrophenyl)hydrazono]piperidine-1-carboxylate]	27.5 ± 1.4	60.6 ± 1.1	–
FC(F)(F)c1ccnc(NCc2ccco2)n1 [H11, N2-(2-furylmethyl)-4-(trifluoromethyl)pyrimidin-2-amine]	0	68.5 ± 0.65	–
N.N.[Cl][Pt][Cl] [cisplatin, reference compound]	–	–	IC50 (MCF7 3D spheroids; [2]): 31.7 ± 1.5 µM; Expression of inflammatory markers (IL-6, TNFα, MMP1) (MCF7 breast cancer cells): milder pro-inflammatory effects compared to the tested three compounds
